Results published in US20070009886A1, “Carbohydrate-associated proteins” (Incyte Corporation, priority 2002, published 2007).

What was measured:
[1] = relative to progesterone; cited from earlier work
[2] = intranasal, relative to hydrocortisone; cited from earlier work
[3] = tested on: SEQ ID NO:37 expression in PBMCs; assay: Microarray analysis of SEQ ID NO:37 expression in cytokine-treated versus untreated PBMCs; assay type: cell-based, human; settings: 10 ng/ml recombinant IL-4, 2 hours, pooled PBMCs of 6 healthy donors
Procedure: Total RNA is isolated from tissue samples using the guanidinium thiocyanate method and poly(A)^+ RNA is purified using the oligo-(dT) cellulose method. Each poly(A)^+ RNA sample is reverse transcribed using MMLV reverse-transcriptase, 0.05 pg/μl oligo-(dT) primer (21mer), 1× first strand buffer, 0.03 units/μl RNase inhibitor, […], […], 500 μM dTTP, 40 μM dCTP, 40 μM dCTP-Cy3 (BDS) or dCTP-Cy5 (Amersham Biosciences). The reverse transcription reaction is performed in a […] containing 200 ng poly(A)^+ RNA with GEMBRIGHT kits (Incyte). Specific control poly(A)^+ RNAs are synthesized by in vitro transcription from non-coding yeast genomic DNA. […]
Sequences of the present invention are used to generate array elements. […] Array elements are amplified in thirty cycles of PCR from an initial quantity of 1-2 ng to a final quantity greater than 5 μg. […]
Reporter-labeled hybridization complexes are detected with a microscope equipped with an Innova 70 mixed gas 10 W laser (Coherent, Inc., Santa Clara Calif.) capable of generating spectral lines at 488 nm for excitation of Cy3 and at 632 nm for excitation of Cy5. […]
A grid is superimposed over the fluorescence signal image such that the signal from each spot is centered in each element of the grid. […]

Molecule: 6α-methyl-17-hydroxyprogesterone [medroxyprogesterone]
- pharmacological activity greater than progesterone [1]: about 15 times

Molecule: C[C@H]1C[C@H]2[C@@H]3CCC4=CC(=O)C=C[C@]4(C)[C@@]3(Cl)[C@@H](O)C[C@]2(C)[C@@]1(O)C(=O)CO [beclomethasone]
- anti-inflammatory and vasoconstrictive effects greater than those produced by hydrocortisone [2]: 5000 times

B1: IL-4: a pleiotropic cytokine produced by activated T cells, mast cells, and basophils (protein, UniProt P05112 25-153, looked up)
Interleukin-4: HKCDITLQEIIKTLNSLTEQKTLCTELTVTDIFAASKNTTEKETFCRAATVLRQFYSHHEKDTRCLGATAQQFHRHKQLIRFLKRLDRNLWGLAGLNSCPVKEANQSTLENFLERLKTIMREKYSKCSS
- expression of SEQ ID NO:37 increased in comparison to untreated PBMCs [3]: at least 2 fold
